Laboratory results published in patent publication US20080312303A1, “Imidazole Derivatives and Their Use for Modulating the Gabaa Receptor Complex” (NeuroSearch A/S, priority 2005, published 2008).

biological target: benzodiazepine modulatory unit (GABAA receptor complex); assay: In vitro inhibition of 3H-flunitrazepam (3H-FNM) binding; set-up: species or system rat; details: inhibition of specific binding of 3H-FNM (1 nM); cerebral cortex membranes from male Wistar rats; 40 min at 2° C.
Procedure: In vitro inhibition of ^3H-flunitrazepam (^3H-FNM) binding
The GABA recognition site and the benzodiazepine modulatory unit can selectively be labelled with ^3H-flunitrazepam.
Preparations are performed at 0-4° C. unless otherwise indicated. Cerebral cortex from male Wistar rats (150-200 g) is homogenised for 5-10 sec in 20 ml Tris-HCl (30 mM, pH 7.4) using an Ultra-Turrax homogeniser. The suspension is centrifuged at 27,000×g for 15 min and the pellet is washed three times with buffer (centrifuged at 27,000×g for 10 min). The washed pellet is homogenized in 20 ml of buffer and incubated on a water bath (37° C.) for 30 min to remove endogenous GABA and then centrifuged for 10 min at 27,000×g. The pellet is then homogenized in buffer and centrifuged for 10 min at 27,000×g. The final pellet is resuspended in 30 ml buffer and the preparation is frozen and stored at −20° C.
The membrane preparation is thawed and centrifuged at 2° C. for 10 min at 27,000×g. The pellet is washed twice with 20 ml 50 mM Tris-citrate, pH 7.1 using an Ultra-Turrax homogeniser and centrifuged for 10 min at 27,000×g. The final pellet is resuspended in 50 mM Tris-citrate, pH 7.1 (500 ml buffer per g of original tissue), and then used for binding assays. Aliquots of 0.5 ml tissue are added to 25 μl of test solution and 25 μl of ^3H-FNM (1 nM, final concentration), mixed and incubated for 40 min at 2° C. Non-specific binding is determined using Clonazepam (1 μM, final concentration). After incubation the samples are added 5 ml of ice-cold buffer and poured directly onto Whatman GF/C glass fibre filters under suction and immediately washed with 5 ml ice-cold buffer. The amount of radioactivity on the filters is determined by conventional liquid scintillation counting. Specific binding is total binding minus non-specific binding.
25-75% inhibition of specific binding must be obtained, before calculation of an IC50.
The test value will be given as IC50 (the concentration (μM) of the test substance which inhibits the specific binding of ^3H-FNM by 50%).

Row | Compound | IC50
1 | Nc1cccc(-c2cn(-c3cccc(-c4ccccc4)c3)cn2)c1 [1-Biphenyl-3-yl-4-(3-amino-phenyl)-1H-imidazole] | 800 nM
2 | COc1ccc(-c2cn(-c3cccc(-c4ccccc4)c3)cn2)cc1 [1-Biphenyl-3-yl-4-(4-methoxy-phenyl)-1H-imidazole] | 460 nM
3 | N#Cc1cccc(-n2cnc(-c3ccccc3)c2)c1 [3-(4-Phenyl-imidazol-1-yl)-benzonitrile] | 100 nM
